Patent US20110280831A1, “COMBINATIONS COMPRISING METHOTREXATE AND DHODH INHIBITORS” (priority 2009, published 2011)

The compounds below were run against human DHODH (Homo sapiens, UniProt Q02127) (assay: Inhibition of human DHODH activity assay (DCIP chromogen reduction)). Settings: enzyme extracts, 10 min at room temperature, absorbance at 600 nm, duplicate; read-out: hDHODH IC50.
Format: biochemical
Method: DHODH activity and its inhibition were studied using a chromogen reduction assay with DCIP (2,6-dichlorophenol-indophenol).
Enzyme extracts (8 μl, ˜1.5 μg of human protein) were incubated in 96-well plates. The assay mixture (200 μl) contained 200 μM CoQD, 100 μM L-DHO, 120 μM DCIP in the assay buffer (100 mM HEPES pH 8.0, 150 mM NaCl, 10% Glicerol, 0.05% Triton X-100) and 2 μl of test compound. The compounds were dissolved in DMSO at a stock concentration of 1 mM, and tested at different concentrations varying from 10 μM to 1 pM to calculate an IC50 (concentration of inhibitor required for 50% of inhibition).
The reaction was initiated by adding the enzyme and then incubated for 10 min at room temperature before measuring DCIP reduction by counting a decrease in absorbance at 600 nm using standard instrumentation (Spectramax).
All reactions were carried out in duplicate and graphs, determining IC50 values for each compound, were plotted using the ABase software.

Sequence of human DHODH (Q02127 whole entry): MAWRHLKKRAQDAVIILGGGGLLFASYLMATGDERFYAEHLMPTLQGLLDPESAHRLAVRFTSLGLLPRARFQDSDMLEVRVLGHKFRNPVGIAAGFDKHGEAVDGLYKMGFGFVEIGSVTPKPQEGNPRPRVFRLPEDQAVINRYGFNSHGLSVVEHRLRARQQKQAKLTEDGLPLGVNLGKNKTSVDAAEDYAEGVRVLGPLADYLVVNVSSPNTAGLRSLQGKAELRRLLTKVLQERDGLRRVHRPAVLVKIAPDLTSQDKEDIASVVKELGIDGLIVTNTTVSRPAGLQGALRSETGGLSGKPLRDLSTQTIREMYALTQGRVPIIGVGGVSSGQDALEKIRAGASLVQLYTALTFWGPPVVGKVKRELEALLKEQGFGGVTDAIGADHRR

Q: How did the IC50 turn out when `O=C(O)c1cc(C2CC2)ccc1Nc1cnc(-c2ccccc2)nc1` [Compound 1, 5-cyclopropyl-2-(2-phenylpyrimidin-5-ylamino)benzoic acid] was run?
A: 0.105 µM

Q: With `Cc1ccc(Nc2ccc(-c3cccc(C(F)(F)F)c3)nc2)c(C(=O)O)c1` [Compound 4, 5-Methyl-2-(6-(3-(trifluoromethyl)phenyl)pyridin-3-ylamino)benzoic acid] as the compound, how does the IC50 read?
A: 0.098 µM

Q: With `O=C(O)c1cc(C2CC2)ccc1Nc1cnc(-c2c(F)cc(O)cc2F)nc1` [Compound 6, 5-cyclopropyl-2-(2-(2,6-difluoro-4-hydroxyphenyl)pyrimidin-5-ylamino)benzoic acid] as the compound, how does the IC50 read?
A: 0.057 µM

Q: How did the IC50 turn out when `COc1ncc(Nc2ccc(C3CC3)cc2C(=O)O)cc1-c1ccccc1` [Compound 7, 5-Cyclopropyl-2-(6-methoxy-5-phenylpyridin-3-ylamino)benzoic acid] was run?
A: 0.049 µM

Q: For `Cc1ccc(Nc2cnc(-c3ccccc3)c(F)c2)c(C(=O)O)c1` [Compound 8, 2-(5-Fluoro-6-phenylpyridin-3-ylamino)-5-methylbenzoic acid], which IC50 is on record?
A: 0.018 µM

Q: `O=C(O)c1cc(C2CC2)ccc1Nc1cnc(-c2ccccc2C2CC2)nc1` [Compound 14, 5-Cyclopropyl-2-(2-(2-cyclopropylphenyl)pyrimidin-5-ylamino)benzoic acid] was tested. Which IC50 did it give?
A: 0.057 µM

Q: `O=C(O)c1cc(C2CC2)ccc1Nc1cncc(-c2ccccc2)c1` [Compound 15, 5-cyclopropyl-2-(5-phenylpyridin-3-ylamino)benzoic acid] was tested. Which IC50 did it give?
A: 0.113 µM

Q: For `Cc1ccc(Nc2cc(Cl)cnc2-c2ccccc2)c(C(=O)O)c1` [Compound 18, 2-(5-Chloro-2-phenylpyridin-3-ylamino)-5-methylbenzoic acid], which IC50 is on record?
A: 0.062 µM

Q: With `O=C(O)c1cc(C2CC2)ccc1Nc1cnc(-c2ccccc2)c(-c2ccccc2)c1` [Compound 19, 5-Cyclopropyl-2-(5,6-diphenylpyridin-3-ylamino)benzoic acid] as the compound, how does the IC50 read?
A: 0.01 µM

Q: `O=C(O)c1cc(C2CC2)ccc1Nc1cnc(-c2cccc(OC3CC3)c2)nc1` [Compound 22, 2-(2-(3-Cyclopropoxyphenyl)pyrimidin-5-ylamino)-5-cyclopropylbenzoic acid] was tested. Which IC50 did it give?
A: 0.114 µM

Q: `O=C(O)c1cc(C2CC2)ccc1Nc1cnc(C2CC2)c(-c2ccccc2)c1` [Compound 25, 5-cyclopropyl-2-(6-cyclopropyl-5-phenylpyridin-3-ylamino)benzoic acid] was tested. Which IC50 did it give?
A: 0.028 µM

Q: `Cc1ccc(Nc2cnc(N3CCCCC3)c(C)c2)c(C(=O)O)c1` [Compound 30, 5-Methyl-2-(5-methyl-6-(piperidin-1-yl)pyridin-3-ylamino)benzoic acid] was tested. Which IC50 did it give?
A: 0.041 µM

Q: `Cc1ccc(Nc2cnc(N3CCCCCC3)c(C)c2)c(C(=O)O)c1` [Compound 31, 2-(6-(Azepan-1-yl)-5-methylpyridin-3-ylamino)-5-methylbenzoic acid] was tested. Which IC50 did it give?
A: 0.119 µM

Q: With `Cc1ccc(Nc2ccc(-c3ccncc3Cl)nc2)c(C(=O)O)c1` [Compound 34, 2-(3′-chloro-2,4′-bipyridin-5-ylamino)-5-methylbenzoic acid] as the compound, how does the IC50 read?
A: 0.109 µM

Q: With `CCOc1cccc(-c2ccc(Nc3ccc(C)cc3C(=O)O)cn2)c1` [Compound 41, 2-(6-(3-Ethoxyphenyl)pyridin-3-ylamino)-5-methylbenzoic acid] as the compound, how does the IC50 read?
A: 0.19 µM

Q: `CCOc1cccc(-c2ncc(Nc3ccc(C)cc3C(=O)O)cc2C)c1` [Compound 42, 2-(6-(3-Ethoxyphenyl)-5-methylpyridin-3-ylamino)-5-methylbenzoic acid] was tested. Which IC50 did it give?
A: 0.03 µM

Q: How did the IC50 turn out when `CCOc1cccc(-c2cc(C)c(Nc3ccc(C)cc3C(=O)O)cn2)c1` [Compound 44, 2-(6-(3-Ethoxyphenyl)-4-methylpyridin-3-ylamino)-5-methylbenzoic acid] was run?
A: 0.078 µM

Q: How did the IC50 turn out when `COc1cccc(-c2ncc(Nc3ccc(C(F)(F)F)cc3C(=O)O)cc2C)c1` [Compound 50, 2-(6-(3-Methoxyphenyl)-5-methylpyridin-3-ylamino)-5-(trifluoromethyl)benzoic acid] was run?
A: 0.138 µM

Q: How did the IC50 turn out when `COc1cccc(-c2ncc(Nc3ccc(C)cc3C(=O)O)cc2C)c1` [Compound 51, 2-(6-(3-Methoxyphenyl)-5-methylpyridin-3-ylamino)-5-methylbenzoic acid] was run?
A: 0.021 µM

Q: `CCOc1ccc(F)c(-c2ccc(Nc3ccc(C)cc3C(=O)O)cn2)c1` [Compound 54, 2-(6-(5-Ethoxy-2-fluorophenyl)pyridin-3-ylamino)-5-methylbenzoic acid] was tested. Which IC50 did it give?
A: 0.019 µM

Q: `Cc1ccc(Nc2ccc(-c3ccccc3F)nc2)c(C(=O)O)c1` [Compound 57, 2-(6-(2-Fluorophenyl)pyridin-3-ylamino)-5-methylbenzoic acid] was tested. Which IC50 did it give?
A: 0.091 µM

Q: For `Cc1ccc(Nc2ccc(-c3cc(OC(C)C)ccc3F)nc2)c(C(=O)O)c1` [Compound 66, 2-(6-(2-Fluoro-5-isopropoxyphenyl)pyridin-3-ylamino)-5-methylbenzoic acid], which IC50 is on record?
A: 0.028 µM

Q: With `Cc1ccc(Nc2cnc(-c3cccc(OC(C)C)c3)c(C)c2)c(C(=O)O)c1` [Compound 67, 2-(6-(3-Isopropoxyphenyl)-5-methylpyridin-3-ylamino)-5-methylbenzoic acid] as the compound, how does the IC50 read?
A: 0.011 µM

Q: With `Cc1ccc(Nc2cnc(-c3cccc(C(N)=O)c3)c(C)c2)c(C(=O)O)c1` [Compound 73, 2-(6-(3-Carbamoylphenyl)-5-methylpyridin-3-ylamino)-5-methylbenzoic acid] as the compound, how does the IC50 read?
A: 0.19 µM

Q: `COc1ccc(F)c(-c2cc(C)c(Nc3ccc(C)cc3C(=O)O)cn2)c1` [Compound 75, 2-(6-(2-Fluoro-5-methoxyphenyl)-4-methylpyridin-3-ylamino)-5-methylbenzoic acid] was tested. Which IC50 did it give?
A: 0.097 µM

Q: With `COc1cccc(-c2ncc(Nc3ccc(C)cc3C(=O)O)cc2C(F)(F)F)c1` [Compound 77, 2-(6-(3-Methoxyphenyl)-5-(trifluoromethyl)pyridin-3-ylamino)-5-methylbenzoic acid] as the compound, how does the IC50 read?
A: 0.012 µM

Q: Which IC50 does the source give for `Cc1ccc(Nc2cnc(-c3cccc(C(=O)N(C)C)c3)c(C)c2)c(C(=O)O)c1` [Compound 79, 2-(6-(3-(Dimethylcarbamoyl)phenyl)-5-methylpyridin-3-ylamino)-5-methylbenzoic acid] here?
A: 0.033 µM

Q: How did the IC50 turn out when `Cc1cc(Nc2ccc(C3CC3)cc2C(=O)O)cnc1-c1cccc(OC(F)(F)F)c1` [Compound 89, 5-Cyclopropyl-2-(5-methyl-6-(3-(trifluoromethoxy)phenyl)pyridin-3-ylamino)benzoic acid] was run?
A: 0.005 µM

Q: How did the IC50 turn out when `Cc1cc(Nc2ccc(C3CC3)cc2C(=O)O)cnc1-c1ccccc1` [Compound 91, 5-Cyclopropyl-2-(5-methyl-6-phenylpyridin-3-ylamino)benzoic acid] was run?
A: 0.006 µM

Q: Which IC50 does the source give for `Cc1ccc(Nc2cnc(-c3ccccc3C(F)(F)F)c(C)c2)c(C(=O)O)c1` [Compound 93, 5-Methyl-2-(5-methyl-6-(2-(trifluoromethyl)phenyl)pyridin-3-ylamino)benzoic acid] here?
A: 0.02 µM

Q: How did the IC50 turn out when `Cc1ccc(Nc2cnc(-c3cccc(Cl)c3)c(C)c2)c(C(=O)O)c1` [Compound 95, 2-(6-(3-Chlorophenyl)-5-methylpyridin-3-ylamino)-5-methylbenzoic acid] was run?
A: 0.01 µM

Q: How did the IC50 turn out when `Cc1ccc(Nc2cnc(-c3ccncc3F)c(C)c2)c(C(=O)O)c1` [Compound 101, 2-(3′-Fluoro-3-methyl-2,4′-bipyridin-5-ylamino)-5-methylbenzoic acid] was run?
A: 0.037 µM

Q: Which IC50 does the source give for `O=C(O)c1cc(C2CC2)ccc1Nc1cnc(-c2ccccc2)c(C(F)(F)F)c1` [Compound 105, 5-Cyclopropyl-2-(6-phenyl-5-(trifluoromethyl)pyridin-3-ylamino)benzoic acid] here?
A: 0.002 µM
